Results on 22 compounds are retold here after PubChem BioAssay AID248 (DTP/NCI, 2004).

The assay concerns L1210 leukemia ip in BDF1 mice, survival T/C. The assay is described as follows: NCI In Vivo Anticancer Drug Screen. Data for tumor model L1210 Leukemia (intraperitoneal) in B6D2F1 (BDF1) mice. As to conditions: endpoint: mean survival time, higher = longer survival. An outline of the steps:
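Each compound was tested against a transplantable tumor grown in mice. The endpoint was survival, with treated animals benchmarked against vehicle controls as a simple ratio.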

Setting [1] is: dose: 100.0 mg/kg/injection, schedule: Q01DX001 (ip), vehicle: saline.
[2] abbreviates: dose: 200.0 mg/kg/injection, schedule: Q01DX001 (ip), vehicle: saline.
The mark [3] stands for this setting: dose: 100.0 mg/kg/injection, schedule: Q01DX001 (ip), vehicle: other.
Setting [4] is: dose: 200.0 mg/kg/injection, schedule: Q01DX001 (ip), vehicle: other.
The mark [5] stands for this setting: dose: 400.0 mg/kg/injection, schedule: Q01DX001 (ip), vehicle: other.
The mark [6] stands for this setting: dose: 100.0 mg/kg/injection, schedule: Q04DX002 (ip), vehicle: Klucel (hydroxypropylcellulose) (HPC).
Where [7] appears, read: dose: 200.0 mg/kg/injection, schedule: Q04DX002 (ip), vehicle: Klucel (hydroxypropylcellulose) (HPC).
Setting [8] is: dose: 400.0 mg/kg/injection, schedule: Q04DX002 (ip), vehicle: Klucel (hydroxypropylcellulose) (HPC).
[9] abbreviates: dose: 100.0 mg/kg/injection, schedule: Q04DX003 (ip), vehicle: Klucel (hydroxypropylcellulose) (HPC).
The mark [10] stands for this setting: dose: 200.0 mg/kg/injection, schedule: Q04DX003 (ip), vehicle: Klucel (hydroxypropylcellulose) (HPC).
Where [11] appears, read: dose: 400.0 mg/kg/injection, schedule: Q04DX003 (ip), vehicle: Klucel (hydroxypropylcellulose) (HPC).
The mark [12] stands for this setting: dose: 50.0 mg/kg/injection, schedule: Q01DX009 (ip), vehicle: Klucel (hydroxypropylcellulose) (HPC).
Setting [13] is: dose: 100.0 mg/kg/injection, schedule: Q01DX009 (ip), vehicle: Klucel (hydroxypropylcellulose) (HPC).
[14] abbreviates: dose: 200.0 mg/kg/injection, schedule: Q01DX009 (ip), vehicle: Klucel (hydroxypropylcellulose) (HPC).
Setting [15] is: dose: 400.0 mg/kg/injection, schedule: Q01DX009 (ip), vehicle: Klucel (hydroxypropylcellulose) (HPC).
The mark [16] stands for this setting: dose: 100.0 mg/kg/injection, schedule: Q01DX001 (ip), vehicle: carboxymethylcellulose (CMC).
[17] abbreviates: dose: 200.0 mg/kg/injection, schedule: Q01DX001 (ip), vehicle: carboxymethylcellulose (CMC).
[18] abbreviates: dose: 400.0 mg/kg/injection, schedule: Q01DX001 (ip), vehicle: carboxymethylcellulose (CMC).

Molecules are shown by their SMILES. Inconclusive results and toxic doses are left out.

As for `COC(=O)c1[nH]cnc1/N=N/N(C)C`, the T/C is, setting by setting: (dose: 6.75 mg/kg/injection, schedule: Q01DX009 (ip), vehicle: saline) 119 % of control; (dose: 9.3 mg/kg/injection, schedule: Q01DX015 (ip), vehicle: saline) 113 % of control; (dose: 11.25 mg/kg/injection, schedule: Q01DX Z (ip), vehicle: saline) 124 % of control; (dose: 22.25 mg/kg/injection, schedule: Q04DX003 (ip), vehicle: saline) 115 % of control; (dose: 27.0 mg/kg/injection, schedule: Q01DX009 (ip), vehicle: saline) 150 % of control; (dose: 31.0 mg/kg/injection, schedule: Q01DX Z (ip), vehicle: saline) 171 % of control. The T/C reads like this: (dose: 44.5 mg/kg/injection, schedule: Q04DX003 (ip), vehicle: saline) 120 % of control; (dose: 46.0 mg/kg/injection, schedule: Q01DX Z (ip), vehicle: saline) 160 % of control; (dose: 54.0 mg/kg/injection, schedule: Q01DX015 (ip), vehicle: saline) 164 % of control; (dose: 57.5 mg/kg/injection, schedule: Q01DX001 (ip), vehicle: saline) 114 % of control; (dose: 62.0 mg/kg/injection, schedule: Q01DX Z (ip), vehicle: saline) 121 % of control; (dose: 88.0 mg/kg/injection, schedule: Q01DX001 (ip), vehicle: saline) 112 % of control. The T/C is, setting by setting: (dose: 88.8 mg/kg/injection, schedule: Q01DX001 (ip), vehicle: saline) 124 % of control; (dose: 90.0 mg/kg/injection, schedule: Q01DX015 (ip), vehicle: saline) 114 % of control; under setting [1], 124 % of control; (dose: 115.0 mg/kg/injection, schedule: Q01DX001 (ip), vehicle: saline) 114 % of control; (dose: 133.0 mg/kg/injection, schedule: Q01DX001 (ip), vehicle: saline) 115 % of control; under setting [2], 121 % of control. Besides, the T/C (dose: 231.0 mg/kg/injection, schedule: Q01DX001 (ip), vehicle: saline) is 123 % of control.
For `O=C(O)C1C2C=CC21` (stereo not given), the T/C is 96 % of control under setting [3], 101 % of control under setting [4] and 102 % of control under setting [5].
For `COc1ccc(Oc2cccc3cnccc23)cc1`, the T/C was 102 % of control under setting [6], 91 % of control under setting [7] and 94 % of control under setting [8].
Regarding `NC1(C(=O)O)CC2CC1C2` (stereo not given), the T/C by setting is: (dose: 100.0 mg/kg/injection, schedule: Q04DX002 (ip), vehicle: other) 95 % of control; (dose: 200.0 mg/kg/injection, schedule: Q04DX002 (ip), vehicle: other) 106 % of control; (dose: 400.0 mg/kg/injection, schedule: Q04DX002 (ip), vehicle: other) 92 % of control.
With `COC(=O)CSC(=O)C(O)c1ccccc1` (stereo not given), the T/C is, setting by setting: under setting [9], 96 % of control; under setting [10], 103 % of control; under setting [11], 103 % of control.
As to `COc1cccc(C(N)C(=O)O)c1` (stereo not given), the T/C is, setting by setting: (dose: 50.0 mg/kg/injection, schedule: Q01DX001 (ip), vehicle: saline) 94 % of control; under setting [1], 100 % of control; under setting [2], 105 % of control; (dose: 400.0 mg/kg/injection, schedule: Q01DX001 (ip), vehicle: saline) 97 % of control.
`NNC(=O)CCCc1ccccc1`: the T/C (dose: 25.0 mg/kg/injection, schedule: Q01DX009 (ip), vehicle: saline) is 97 % of control; the T/C (dose: 50.0 mg/kg/injection, schedule: Q01DX009 (ip), vehicle: saline) is 103 % of control; the T/C under setting [1] was 105 % of control.
For `CC(C)CCn1ccc(N)nc1=O`, the T/C is 97 % of control (dose: 25.0 mg/kg/injection, schedule: Q01DX001 (ip), vehicle: saline with Tween-80); 101 % of control (dose: 50.0 mg/kg/injection, schedule: Q01DX001 (ip), vehicle: saline with Tween-80); 90 % of control (dose: 100.0 mg/kg/injection, schedule: Q01DX001 (ip), vehicle: saline with Tween-80).
In the case of `C=CCCCCCCCCC(=O)NCCCC(OCC)OCC`, the T/C by setting is: (dose: 100.0 mg/kg/injection, schedule: Q04DX003 (ip), vehicle: saline) 106 % of control; (dose: 200.0 mg/kg/injection, schedule: Q04DX003 (ip), vehicle: saline) 95 % of control; (dose: 400.0 mg/kg/injection, schedule: Q04DX003 (ip), vehicle: saline) 95 % of control.
Take `Cc1cnc2cc(Cl)ccc2n1`: the T/C is, setting by setting: under setting [12], 94 % of control; under setting [13], 93 % of control; under setting [9], 102 % of control; under setting [14], 107 % of control; under setting [10], 96 % of control.
Regarding `O=C(OCCC/C(=C\c1cc2ccccc2c2ccccc12)[N+](=O)[O-])c1ccccc1`, the T/C runs as follows: under setting [3], 87 % of control; under setting [4], 92 % of control; under setting [5], 91 % of control.
`CCCCCCCCC(=O)N1C(C)CCCC1C` (stereo not given): the T/C by setting is: (dose: 100.0 mg/kg/injection, schedule: Q04DX002 (ip), vehicle: saline) 111 % of control; (dose: 200.0 mg/kg/injection, schedule: Q04DX002 (ip), vehicle: saline) 114 % of control; (dose: 400.0 mg/kg/injection, schedule: Q04DX002 (ip), vehicle: saline) 100 % of control.
With `NCC(=O)c1ccc(Cl)cc1`, the T/C reads like this: under setting [1], 102 % of control; under setting [2], 104 % of control.
Take `S=P1(c2ccccc2)Nc2ccccc2N1c1ccccc1` (stereo not given): the T/C reads like this: (dose: 100.0 mg/kg/injection, schedule: Q04DX002 (ip), vehicle: DMSO) 114 % of control; (dose: 200.0 mg/kg/injection, schedule: Q04DX002 (ip), vehicle: DMSO) 86 % of control.
As to `O=C(/C=C/c1ccc2c(c1)OCO2)c1ccccc1`, the T/C is 97 % of control under setting [12]; 103 % of control under setting [13]; 102 % of control under setting [9]; 106 % of control under setting [14]; 93 % of control under setting [10]; 103 % of control under setting [15]. Besides, the T/C under setting [11] was 98 % of control.
As to `NC(C(=O)c1ccccc1)c1ccccc1.[Cl][Sn][Cl]` (stereo not given), the T/C was 102 % of control (dose: 75.0 mg/kg/injection, schedule: Q01DX001 (ip), vehicle: saline) and 117 % of control (dose: 150.0 mg/kg/injection, schedule: Q01DX001 (ip), vehicle: saline).
Take `COc1ccc(S(=O)(=O)Nc2cc([N+](=O)[O-])ccc2C)cc1`: the T/C is 100 % of control under setting [13], 100 % of control under setting [14] and 98 % of control under setting [15].
As for `CSc1nc(C)c(C=O)s1`, the T/C by setting is: under setting [16], 100 % of control; under setting [17], 96 % of control; under setting [18], 94 % of control.
For `O=C(Nc1ccc(S(=O)(=O)c2ccc(NC(=O)C(F)(F)Cl)cc2)cc1)C(F)(F)Cl`, in that order: 104 % of control, 101 % of control and 103 % of control.
Take `COc1ccc(C2(OC(=O)c3ccc([N+](=O)[O-])cc3)C3C=CC2CC3)cc1` (stereo not given): the T/C runs as follows: under setting [6], 87 % of control; under setting [7], 107 % of control; under setting [8], 90 % of control.
As for `Cc1cc(NC(=O)Nc2ccc(C3=NCCN3)cc2)ccc1NC(=O)Nc1ccc(C2=NCCN2)cc1`, the T/C runs as follows: (dose: 62.0 mg/kg/injection, schedule: Q01DX Z (ip), vehicle: carboxymethylcellulose (CMC)) 124 % of control; (dose: 250.0 mg/kg/injection, schedule: Q01DX Z (ip), vehicle: carboxymethylcellulose (CMC)) 151 % of control.
As to `CN(C)NC(=O)/C=C\C(=O)O`, the T/C runs as follows: (dose: 100.0 mg/kg/injection, schedule: Q04DX002 (ip), vehicle: saline with Tween-80) 93 % of control; (dose: 200.0 mg/kg/injection, schedule: Q04DX002 (ip), vehicle: saline with Tween-80) 100 % of control; (dose: 400.0 mg/kg/injection, schedule: Q04DX002 (ip), vehicle: saline with Tween-80) 93 % of control.
